The supplement of paper PMC7840683
Where a name gives a salt, the structure may show the parent alone. ± gives the standard deviation of the averaged measurements.

Tested on: HepaRG
Experiment: LDH release cytotoxicity, % of total lysis control; higher = more cytotoxic
Details: 48 h
In short: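 Duplicate wells of single-lot HepaRG cells, grown on collagen I-coated 96-well plates, received eight-point half-log series of test chemicals with 100 µM as the top concentration. Exposure lasted 48 h in serum-free induction medium with 0.5% DMSO, while total lysis wells received 0.1% Triton X. Resorufin fluorescence (CytoTox-ONE, Tecan Safire) was used to quantify LDH leaked into 50 µL of spent medium. Values for percent cytotoxicity were normalized to on-plate vehicle and total lysis controls and averaged across the duplicates.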

Structure (SMILES)	LDH release cytotoxicity (0.03162 µM) [%]	LDH release cytotoxicity (0.1 µM) [%]	LDH release cytotoxicity (0.3162278 µM) [%]	LDH release cytotoxicity (1 µM) [%]	LDH release cytotoxicity (3.16228 µM) [%]	LDH release cytotoxicity (10 µM) [%]	LDH release cytotoxicity (31.6228 µM) [%]	LDH release cytotoxicity (100 µM) [%]	other results
C=CCc1ccc2c(c1)OCO2 [Safrole]	-1.32 ± 2.9	-2.757 ± 0.0064	-3.53 ± 1	-4.07 ± 0.0064	-3.36 ± 0.43	-2.27 ± 1.1	-1.93 ± 2.5	1.79 ± 3.3	
CCNS(=O)(=O)C(F)(F)C(F)(F)C(F)(F)C(F)(F)C(F)(F)C(F)(F)C(F)(F)C(F)(F)F [N-Ethylperfluorooctanesulfonamide]	-0.318 ± 1.2	-0.363 ± 0.53	-1.47 ± 0.29	-0.894 ± 0.41	-1.27 ± 0.88	-0.5 ± 0.13	0.958 ± 1.5	2.37 ± 1	
CNC(=O)CSP(=S)(OC)OC [Dimethoate]	0.0142 ± 0.81	0.0233 ± 0.62	-0.779 ± 0.49	-1.24 ± 0.51	-0.679 ± 0.19	-0.364 ± 0.63	0.327 ± 0.06	0.574 ± 0.89	
CCC(=NOCC=CCl)C1C(=O)CC(C2CCOCC2)CC1=O (configuration not stated) [Tepraloxydim]	-1.86 ± 0.12	-1.65 ± 0.29	-1.97 ± 0.062	-1.72 ± 0.081	-1.7 ± 0.22	-1.32 ± 0.12	-0.75 ± 0.13	-0.617 ± 0.06	
CCOc1ccc(C(C)(C)COCc2cccc(Oc3ccccc3)c2)cc1 [Etofenprox]	-2.22 ± 0.67	-3.48 ± 0.5	-2.37 ± 0.096	-2.59 ± 0.48	-2.77 ± 0.28	-2.63 ± 0.86	-2.47 ± 0.33	-1.82 ± 0.12	
CCN(CC)CCOc1ccc(C(=C(Cl)c2ccccc2)c2ccccc2)cc1 [Clomiphene citrate (1:1)]									LDH release cytotoxicity (0.0265631 µM): -2.02 ± 0.85%; LDH release cytotoxicity (0.084 µM): -1.22 ± 1.1%; LDH release cytotoxicity (0.265631 µM): -0.767 ± 0.54%; LDH release cytotoxicity (0.84 µM): -1.18 ± 0.029%; LDH release cytotoxicity (2.6563132 µM): -0.65 ± 0.39%; LDH release cytotoxicity (8.4 µM): -1.17 ± 0.63%; LDH release cytotoxicity (26.563132 µM): 9.07 ± 8.3%; LDH release cytotoxicity (84 µM): 95.2 ± 1.5%
CCOP(=S)(OCC)Oc1cc(C)nc(C(C)C)n1 [Diazinon]	-0.351 ± 0.5	-0.469 ± 0.17	-1.1 ± 0.52	-1.24 ± 0.3	0.347 ± 0.03	-0.4 ± 0.31	-0.512 ± 0.59	0.528 ± 0.71	
CCOCN(C(=O)CCl)c1c(C)cccc1CC [Acetochlor]	-0.907 ± 0.26	-1.94 ± 0.45	-0.877 ± 0.019	-0.999 ± 0.47	-1.55 ± 0.19	-0.606 ± 0.56	0.268 ± 0.58	56.1 ± 2.4	
CNC1CCC(c2ccc(Cl)c(Cl)c2)c2ccc(S(N)(=O)=O)cc21 (configuration not stated)	-1.64 ± 0.43	-2.15 ± 0.55	-1.81 ± 0.055	-1.88 ± 0.57	-1.12 ± 0.32	-0.337 ± 0.06	15 ± 0.65	81.4 ± 3.4	
O=S1(=O)CCCO1 [1,3-Propane sultone]	-0.997 ± 0.28	-2.2 ± 0.45	-1.51 ± 0.54	-1.38 ± 0.031	-1.5 ± 0.31	-1.53 ± 0.35	-0.817 ± 0.19	-0.0166 ± 1.5	
CC(=NC#N)N(C)Cc1ccc(Cl)nc1 [Acetamiprid]	-2.01 ± 1.8	-2.67 ± 0.84	-2.61 ± 0.31	-2.64 ± 0.13	-2.01 ± 0.025	-2.44 ± 1.2	-2.262 ± 0.022	0.254 ± 0.19	
COc1nc(NC(C)C)nc(NC(C)C)n1 [Prometon]	-0.0909 ± 0.068	-0.994 ± 0.017	-1.1 ± 0.4	-1.18 ± 0.78	-1.26 ± 0.4	-1.06 ± 0.7	-0.722 ± 0.4	-0.643 ± 0.89	
CC(C)(C)c1cc(O)ccc1O [tert-Butylhydroquinone]	-1.59 ± 0.56	-1.78 ± 0.34	-2.28 ± 0.47	-2.78 ± 0.035	-3.35 ± 0.087	-3.59 ± 0.29	-4.19 ± 0.26	-3.84 ± 0.12	
CCOc1nc(F)cc2nc(S(=O)(=O)Nc3c(Cl)cccc3Cl)nn12 [Diclosulam]									LDH release cytotoxicity (0.01581 µM): -5.4 ± 0.3%; LDH release cytotoxicity (0.05 µM): -5.8 ± 0.38%; LDH release cytotoxicity (0.1581139 µM): -6.31 ± 0.31%; LDH release cytotoxicity (0.5 µM): -6.08 ± 0.24%; LDH release cytotoxicity (1.5811388 µM): -6.09 ± 0.25%; LDH release cytotoxicity (5 µM): -5.21 ± 0.053%; LDH release cytotoxicity (15.8114 µM): -4.75 ± 0.14%; LDH release cytotoxicity (50 µM): -3.63 ± 0.7%
CCCCCCCc1ccc(O)cc1 [4-Heptylphenol]	-0.653 ± 0.82	-1.61 ± 0.21	-0.99 ± 0.5	-1.03 ± 0.079	-1.8 ± 0.76	-0.598 ± 0.18	-0.324 ± 0.52	0.525	
CC12CCC(=O)C=C1CCC1C2CCC2(C)C1CCC2(C)O (configuration not stated) [17-Methyltestosterone]	-1.79 ± 1.4	-1.97 ± 0.62	-1.97 ± 1.4	-1.95 ± 2.3	-2.67 ± 0.81	-2.51 ± 1.4	-2.52 ± 1.9	-1.06 ± 1.5	
ClC1=C(Cl)C2(Cl)C3C4CC(C5OC45)C3C1(Cl)C2(Cl)Cl (configuration not stated) [Dieldrin]	-0.556 ± 0.44	-1.67 ± 0.84	-1.33 ± 0.11	-1.987 ± 0.015	-2.14 ± 0.65	-0.0152 ± 1.5	-0.473 ± 0.01	2.21 ± 0.079	
NC(=O)N1C(=O)C(C(=O)c2cc(Cl)cs2)c2cc(F)c(Cl)cc21 (configuration not stated)	-0.6756 ± 0.0047	-0.635 ± 1.4	-0.381 ± 0.96	-0.761 ± 0.069	-0.334 ± 0.65	1.12 ± 0.053	64.6 ± 1	50.6 ± 8.4	
CCCCOC(=O)c1ccccc1C(=O)O [Monobutyl phthalate]	-2.25 ± 1	-2.21 ± 0.79	-2.76 ± 0.98	-3.09 ± 0.93	-2.68 ± 1.3	-2.9 ± 1.1	-2.43 ± 1.4	-0.95 ± 1.3	
